In ChEMBL document CHEMBL3638965, “Chemical compounds 542” (2015):

Target: DNA gyrase (Escherichia coli, UniProt P0AES4+P0AES6)
Test: Fluorescence Polarisation Assay: In a black, 384-well polystyrene assay plate, 30 microliters/well of 5 nM Escherichia coli DNA gyrase A/B tetramer and 130 micrograms/ml of topologically relaxed plasmid containing the triplex-forming sequence […] in an assay buffer consisting of 35 mM Tris-HCl (pH 7.5), 24 mM KCl, 4 mM MgCl2, 2 mM dithiothreitol, 1.8 mM spermidine, 5% (v/v) glycerol, 200 nM bovine serum albumin, 0.8% dimethylsulfoxide, and 0.3 mM ATP may be incubated at ambient temperature for (typically 30 minutes) in the absence or presence of 5-10 different concentrations of test compound. The supercoiling reactions may be quenched by the addition of 10 microliters/well of 40 nM oligodeoxynucleotide probe in 3x triplex-forming buffer consisting of 150 mM NaCl, and 150 mM sodium acetate at pH 3.5. The oligodeoxynucleotide probe may be 5x-BODIPY-FL-labeled […]. After 60 minutes, the fluorescence anisotropy of the BODIPY-FL may be measured in a Tecan Ultra plate reader, using 485 nM.
Type: protein-complex assay

Question: Which IC50 does the source give for `C[C@@H]1CN2c3c(cc4c(Cl)noc4c3F)CC3(C(=O)NC(=O)NC3=O)[C@H]2[C@H](C)O1` here?
Answer: The IC50 was 0.2 µM.

Question: Which IC50 does the source give for `Cc1noc2c(Cl)c3c(nc12)CC1(C(=O)NC(=O)NC1=O)[C@H]1[C@H](C)O[C@H](C)CN31` (relative stereo) here?
Answer: The IC50 was 1.8 µM.

Question: Which IC50 does the source give for `C[C@@H]1CN2c3c(cc4c(C(N)=O)noc4c3F)CC3(C(=O)NC(=O)NC3=O)[C@H]2[C@H](C)O1` (relative stereo) here?
Answer: The IC50 was 1.7 µM.
